Here are results for seven compounds from PMC6272341, “Synthesis and Biological Evaluation of N-Alkoxyphenyl-3-hydroxynaphthalene-2-carboxanilides” (Molecules, 2015).

In brackets after ≈: the same amount, converted by molar mass. Like-named read-outs stand apart in the source and are kept apart here.

Usually MIC stands for the least concentration at which growth counts as inhibited. Usually IC50 stands for the concentration that inhibits the measured activity by half. A higher IC50 goes with lower potency. A word on the viability: it is a per cent measure of how many cells are alive, often set against a control.

The subject of series [1] is clinical isolate of M. avium subsp. paratuberculosis CIT03. Nature of the series: In vitro antimycobacterial evaluation, alamarBlue (MIC). Format: cell-based. Conditions: Mycobacterium avium, 264 h, read-out: MIC MAP. For orientation: The colour change of resazurin is a common sign of viable cells or microbes.
Series [2] has as its system M. tuberculosis H37Ra ATCC 25177. Described as above. Format: cell-based. Conditions: Mycobacterium tuberculosis, 168 h, read-out: MIC MT. As to the method:
The evaluation of the in vitro antimycobacterial activity of the compounds was performed against M. tuberculosis H37Ra ATCC 25177 [25] and clinical isolate of M. avium subsp. paratuberculosis CIT03 [26], see Table 1. The activity of compounds was expressed as the minimum inhibitory concentration (MIC) that is defined for mycobacteria as a 90% or greater (IC90) reduction of growth in comparison with the control. The MIC/IC90 value is routinely and widely used in bacterial assays, being a standard detection limit according to the Clinical and Laboratory Standards Institute.
Mycobacterium tuberculosis H37Ra ATCC 25177 and well characterised clinical isolate M. avium subsp. paratuberculosis CIT03 were grown in Middlebrook broth (MB), supplemented with Oleic-Albumin-Dextrose-Catalase supplement (Becton Dickinson, Oxford, UK) and mycobactin J (2 μg/mL). Identification of these isolates was performed using biochemical and molecular protocols. At log phase growth, a culture sample (10 mL) was centrifuged at 15,000 rpm/20 min using a bench top centrifuge (Model CR 4-12, Jouan Inc., Winchester, VA, USA). Following removal of the supernatant, the pellet was washed in fresh Middlebrook 7H9GC broth and re-suspended in fresh supplemented MB (10 mL). The turbidity was adjusted to match McFarland standard No. 1 (3 × 10^8 cfu) with MB broth. A further 1:20 dilution of the culture was then performed in MB broth. The antimicrobial susceptibility of all three mycobacterial species was investigated in a 96-well plate format. In these experiments, sterile deionised water (300 µL) was added to all outer-perimeter wells of the plates to minimize evaporation of the medium in the test wells during incubation. Sample wells were composed of 100 µL of test compound dilution and 100 µL of the bacterial stock being tested against. Dilutions of each compound were prepared in duplicate. For all synthesized compounds, final concentrations ranged from 1000 μg/mL to 8 μg/mL. All compounds were prepared in DMSO and subsequent dilutions were made in supplemented MB. The plates were sealed with parafilm and incubated at 37 °C, for 7 days in the case of M. tuberculosis and 11 days in the case of M. avium subsp. paratuberculosis. Following incubation, a 10% addition of alamarBlue (AbD Serotec, Kidlington, UK) was mixed into each well and readings at 570 nm and 600 nm were taken, initially for background subtraction and subsequently after 24 h re-incubation. The background subtraction is necessary for strongly coloured compounds, where the colour may interfere with the interpretation of any colour change. For non-interfering compounds, a blue colour in the well was interpreted as an absence of growth and a pink colour was scored as growth. […] The MIC value is routinely and widely used in bacterial assays and is a standard detection limit according to the Clinical and Laboratory Standards Institute (CLSI,). Rifampicin (Sigma-Aldrich) was used as the standard as it is clinically used antimycobacterial drugs.

The subject of series [3] is S. aureus ATCC 29213. Nature of the series: In vitro antibacterial susceptibility testing, broth dilution micro-method (MIC). As to conditions: Staphylococcus aureus, ATCC29213, 24 h, read-out: MIC SA. For orientation: Broth dilution looks for growth in wells or tubes with falling amounts of substance.
For series [4], the system named is human monocytic leukemia THP-1 cells. Conditions: 24 h.
In series [5] the test system is methicillin-resistant S. aureus clinical isolate SA 630. Nature of the series: In vitro antibacterial susceptibility testing, broth dilution micro-method (MIC). As to conditions: 24 h; for MIC: Staphylococcus aureus, MRSA, read-out: MIC MRSA SA 630, clinical isolate MRSA SA 630, 37 °C, MH broth.
Series [6] concerns methicillin-resistant S. aureus clinical isolate SA 3202. Described as above. Conditions: 24 h; for MIC: Staphylococcus aureus, MRSA, read-out: MIC MRSA 3202, clinical isolate MRSA 3202, 37 °C, MH broth.
For series [7], the system named is methicillin-resistant S. aureus clinical isolate MRSA 63718. Described as above. Conditions: for MIC: Staphylococcus aureus, MRSA, read-out: MIC MRSA 63718, clinical isolate MRSA 63718.
The test system of series [8] is photosynthetic electron transport in spinach chloroplasts. Description: Inhibition of photosynthetic electron transport (PET), DCPIP photoreduction (Hill reaction). The class given is biochemical, spinach (Spinacia oleracea L.). As to the method:
The PET inhibiting activity of the compounds was expressed by IC50 values. […] The aqueous solubility of the para-substituted compounds was limited; therefore IC50 values could not be determined due to precipitation of compounds during experiment. […]
Chloroplasts were prepared from spinach (Spinacia oleracea L.) according to Masarovicova and Kralova. The inhibition of photosynthetic electron transport (PET) in spinach chloroplasts was determined spectrophotometrically (Genesys 6, Thermo Scientific Corporation), using an artificial electron acceptor 2,6-dichlorophenol-indophenol (DCPIP) according to Kralova et al., and the rate of photosynthetic electron transport was monitored as a photoreduction of DCPIP. The measurements were carried out in phosphate buffer (20.0 mM, pH 7.2) containing sucrose (0.4 M), MgCl2 (5.0 mM) and NaCl (15.0 mM). The chlorophyll content was 30 mg/L in these experiments and the samples were irradiated (~100 W/m^2 with 10 cm distance) with a halogen lamp (250 W) using a 4 cm water filter to prevent warming of the samples (suspension temperature 22 °C). The studied compounds were dissolved in DMSO due to their limited aqueous solubility. The applied DMSO concentration (up to 4%) had negligible effect on the photochemical activity in isolated spinach chloroplasts (observed differences in DCPIP photoreduction due DMSO addition were within experimental error). The inhibitory efficiency of the studied compounds was expressed by IC50 values, i.e., by molar concentration of the compounds causing 50% decrease in DCPIP photoreduction relative to the untreated control. […] All reagents used in this study were of analytical grade and were purchased from Sigma.

The subject of series [9] is M. tuberculosis H37Ra ATCC 25177. Nature of the series: MTT assay of mycobacterial viability. As to conditions: Mycobacterium tuberculosis, 168 h; at the lowest tested concentration 8 µg/mL, ca. 24 µM; 7 days. Format: cell-based. Here is the method: The MTT assay is a well-characterized method of assessing cell growth through measurement of respiration. For the purpose of this assay, an MTT measured viability of M. tuberculosis H37Ra of less than 70% after exposure to the MIC of each tested compound was considered a positive result.
For the MTT assay, the outer wells of a 96-well plate were filled with 200 µL of sterile water, and the inner wells were filled with 100 µL of the tested compound at the concentration to be examined. Compounds were prepared as previously stated and diluted in Middlebrook media to achieve the desired concentration. Mycobacterium tuberculosis H37Ra ATCC 25177 was suspended in ODAC supplemented Middlebrook broth at a MacFarland standard of 1.0 and then diluted through a 1:20, using Middlebrook broth as a diluent. The diluted mycobacteria (100 µL) were added to each well containing the compound to be tested. A negative growth control was composed of 100 µL of DMSO and 100 µL of media, and the diluted mycobacteria in broth absent of inhibiting compounds were used as a positive growth control. All compounds and controls were prepared in triplicate. Plates were incubated at 37 °C for 7 days. After the incubation period, 10% well volume of MTT reagent was mixed into each well and incubated at 37 °C for 24 h. The reagent and media were then aspirated from the wells, to which 50 µL 99% isopropanol was then added, and plates were read at 570 nm. The absorbance readings from the cells, grown in the presence of the tested compounds, were compared with uninhibited cell growth (using DMSO as the blank) to determine the relative percent viability. The percent viability was determined through the MTT assay. The percent viability is calculated through comparison of a measured value against that of the uninhibited control: %viability = OD570E/OD570P × 100, where OD570E is the reading from the compound-exposed cells, while OD570P is the reading from the uninhibited cells (positive control). Cytotoxic potential is determined by a percent viability of <70%.
For orientation: Tetrazolium assays rely on reduction of a dye to a coloured formazan, in cell work by metabolically active cells.

Setting [10] is: M. avium subsp. paratuberculosis CIT03, 11 days, 37 °C, alamarBlue, MIC/IC90.
Where [11] appears, read: M. tuberculosis H37Ra, 7 days, 37 °C, alamarBlue, MIC/IC90.

As for `CCCCOc1ccccc1NC(=O)c1cc2ccccc2cc1O` [Compound 6a, N-(2-Butoxyphenyl)-3-hydroxynaphthalene-2-carboxamide], the MIC in series [1] (setting [10]) amounted to 745 µM (≈ 250 µg/mL); in series [2] (setting [11]) it was 373 µM (≈ 125 µg/mL); in series [3], 763 µM (≈ 256 µg/mL); in [5], 763 µM (≈ 256 µg/mL); in series [6], 763 µM (≈ 256 µg/mL); in series [7] (24 h, 24 h, 37 °C, MH broth) it was 763 µM (≈ 256 µg/mL). The compound also returned an LD50 in series [4] of more than 30 µM. In addition, half-maximal inhibition in series [8] (IC50) was put at 182 µM.

Take `CCOc1ccccc1NC(=O)c1cc2ccccc2cc1O` [Compound 4a, N-(2-Ethoxyphenyl)-3-hydroxynaphthalene-2-carboxamide]: the MIC stood at 813 µM (≈ 250 µg/mL) in [1]; 813 µM (≈ 250 µg/mL) in series [2] (setting [11]); 832 µM (≈ 256 µg/mL) in series [3]; 832 µM (≈ 256 µg/mL) in series [5]; 832 µM (≈ 256 µg/mL) in series [6]; 832 µM (≈ 256 µg/mL) in series [7] (24 h, 24 h, 37 °C, MH broth). Also, the LD50 in series [4] was more than 30 µM. The IC50 in series [8] worked out at 76.1 µM.

Regarding `CC(C)Oc1cccc(NC(=O)c2cc3ccccc3cc2O)c1` [Compound 7b, 3-Hydroxy-N-[3-(prop-2-yloxy)phenyl]naphthalene-2-carboxamide], the MIC is 778 µM (≈ 250 µg/mL) in series [1] (setting [10]); 24 µM (≈ 7.71 µg/mL) in series [2]; 796 µM (≈ 256 µg/mL) in series [3]; 796 µM (≈ 256 µg/mL) in series [5]; 796 µM (≈ 256 µg/mL) in series [6]; 796 µM (≈ 256 µg/mL) in [7] (24 h, 24 h, 37 °C, MH broth). In addition, the viability at 8 µg/mL in [9] is 10.7%. Further, the IC50 in series [8] was 6.9 µM.

In the case of `CCC(C)Oc1ccccc1NC(=O)c1cc2ccccc2cc1O` (stereo not shown) [Compound 8a, N-[2-(But-2-yloxy)phenyl]-3-hydroxynaphthalene-2-carboxamide], the MIC in series [1] (setting [10]) came out at 89 µM (≈ 29.9 µg/mL); in series [2] (setting [11]) it was 23 µM (≈ 7.71 µg/mL); in [3] it was 5.9 µM (≈ 1.98 µg/mL); in [5], 12 µM (≈ 4.02 µg/mL); in [6] it was 12 µM (≈ 4.02 µg/mL); in series [7] (24 h, 24 h, 37 °C, MH broth), 12 µM (≈ 4.02 µg/mL). In [5] (clinical isolate MRSA SA 630, 37 °C, MH broth), the “MIC MRSA SA 630” value was 11.9 µM (≈ 3.99 µg/mL). Moreover, in [6] (clinical isolate MRSA 3202, 37 °C, MH broth), the “MIC MRSA 3202” value came to 11.9 µM (≈ 3.99 µg/mL). Moreover, the “activity fold higher than that of ampicillin” value in [7] (antibacterial activity against MRSA strains versus ampicillin) is on record as approximately 4 fold. Besides, the “MIC MRSA 63718” value in [7] (clinical isolate MRSA 63718, 24 h, 37 °C, MH broth) is given as 11.9 µM (≈ 3.99 µg/mL). Further, the viability at 8 µg/mL in series [9] was found to be 23.9%. Moreover, the IC50 in series [8] stood at 134 µM.

In the case of `CCCCOc1cccc(NC(=O)c2cc3ccccc3cc2O)c1` [Compound 6b, N-(3-Butoxyphenyl)-3-hydroxynaphthalene-2-carboxamide], the MIC in series [1] came to 745 µM (≈ 250 µg/mL); in [2] (setting [11]) it was 745 µM (≈ 250 µg/mL); in series [3] it was 763 µM (≈ 256 µg/mL); in series [5], 763 µM (≈ 256 µg/mL); in [6], 763 µM (≈ 256 µg/mL); in [7] (24 h, 24 h, 37 °C, MH broth) it was 763 µM (≈ 256 µg/mL). Also, the LD50 in series [4] is 16.5 ± 0.8 µM. In series [8], this compound showed an IC50 of 7.8 µM.

As for `CCC(C)Oc1cccc(NC(=O)c2cc3ccccc3cc2O)c1` (stereo not shown) [Compound 8b, N-[3-(But-2-yloxy)phenyl]-3-hydroxynaphthalene-2-carboxamide], the MIC came out at 745 µM (≈ 250 µg/mL) in series [1] (setting [10]); 23 µM (≈ 7.71 µg/mL) in series [2] (setting [11]); 763 µM (≈ 256 µg/mL) in series [3]; 763 µM (≈ 256 µg/mL) in series [5]; 763 µM (≈ 256 µg/mL) in [6]; 763 µM (≈ 256 µg/mL) in [7] (24 h, 24 h, 37 °C, MH broth). In [4], this compound had an LD50 of 2.7 ± 0.7 µM. This compound also gave a viability at 8 µg/mL in series [9] of 21.7%. The compound also yielded an IC50 in series [8] of 8.3 µM.

For `CC(C)Oc1ccccc1NC(=O)c1cc2ccccc2cc1O` [Compound 7a, 3-Hydroxy-N-[2-(prop-2-yloxy)phenyl]naphthalene-2-carboxamide], the MIC is 778 µM (≈ 250 µg/mL) in series [1] (setting [10]); 389 µM (≈ 125 µg/mL) in [2] (setting [11]); 796 µM (≈ 256 µg/mL) in series [3]; 796 µM (≈ 256 µg/mL) in series [5]; 796 µM (≈ 256 µg/mL) in [6]; 796 µM (≈ 256 µg/mL) in [7] (24 h, 24 h, 37 °C, MH broth). In series [4], this compound registered an LD50 of more than 30 µM. Besides, half-maximal inhibition in series [8] (IC50) required 138 µM.
